Measurements: article PMC10096035, “Switching from Aromatase Inhibitors to Dual Targeting Flavonoid-Based Compounds for Breast Cancer Treatment” (Molecules, 2023)

What was measured:
[1] = molecular target: T1, ERα (Estrogen Receptor α) (Homo sapiens, UniProt P03372); assay: fluorescence polarization competition (PolarScreen); conditions: read-out: ERα Binding IC50 μM ^1
T1 construct: gene ESR1; purified ERα supplied with the PolarScreen kit (Invitrogen); construct not described
T1 sequence (P03372 1-595): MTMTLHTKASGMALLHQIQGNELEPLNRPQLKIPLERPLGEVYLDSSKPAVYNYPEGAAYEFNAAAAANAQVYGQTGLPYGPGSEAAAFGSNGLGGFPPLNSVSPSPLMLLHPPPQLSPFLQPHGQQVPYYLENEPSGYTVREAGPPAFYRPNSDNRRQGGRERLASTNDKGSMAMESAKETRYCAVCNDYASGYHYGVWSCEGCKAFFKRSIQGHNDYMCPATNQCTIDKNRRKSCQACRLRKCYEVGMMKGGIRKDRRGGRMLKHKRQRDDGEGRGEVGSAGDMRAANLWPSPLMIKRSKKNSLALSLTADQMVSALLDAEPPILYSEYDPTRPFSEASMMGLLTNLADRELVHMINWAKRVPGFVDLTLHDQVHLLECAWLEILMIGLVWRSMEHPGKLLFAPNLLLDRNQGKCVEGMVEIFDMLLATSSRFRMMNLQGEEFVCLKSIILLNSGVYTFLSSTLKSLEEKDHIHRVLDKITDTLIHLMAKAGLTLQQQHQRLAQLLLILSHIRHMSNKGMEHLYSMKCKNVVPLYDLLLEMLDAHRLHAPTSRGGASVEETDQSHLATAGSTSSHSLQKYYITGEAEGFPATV
Description: fluorescence polarization competition (PolarScreen) on ERα (Estrogen Receptor α)

[2] = molecular target: T2, aromatase (AR; CYP19A) (Homo sapiens, UniProt P11511); assay: fluorometric aromatase inhibition kit; format: biochemical; conditions: read-out: AR Inhibition IC50 μM ^1
T2 construct: gene CYP19A1; construct not described
T2 sequence (P11511 1-503): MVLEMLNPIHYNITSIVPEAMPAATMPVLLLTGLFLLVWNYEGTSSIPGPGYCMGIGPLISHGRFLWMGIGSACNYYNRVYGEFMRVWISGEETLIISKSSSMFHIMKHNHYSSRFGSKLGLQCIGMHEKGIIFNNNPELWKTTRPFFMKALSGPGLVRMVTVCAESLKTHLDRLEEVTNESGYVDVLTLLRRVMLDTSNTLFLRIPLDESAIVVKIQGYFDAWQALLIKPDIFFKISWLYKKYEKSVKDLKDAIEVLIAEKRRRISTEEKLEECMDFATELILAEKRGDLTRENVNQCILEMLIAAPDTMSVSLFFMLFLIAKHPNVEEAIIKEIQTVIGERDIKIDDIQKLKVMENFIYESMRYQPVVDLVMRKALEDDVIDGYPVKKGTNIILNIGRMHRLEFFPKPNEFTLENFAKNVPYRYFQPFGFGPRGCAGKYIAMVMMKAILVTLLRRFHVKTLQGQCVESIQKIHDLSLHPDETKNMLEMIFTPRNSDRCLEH
Description: fluorometric aromatase inhibition kit on aromatase (AR; CYP19A)

SMILES | IC50 [1] [µM] | IC50 [2] [µM]
O=c1c(Cn2ccnc2)c(-c2ccc([N+](=O)[O-])cc2)oc2ccccc12 [1a] | > 10 | 
O=c1c(Cn2ccnc2)c(-c2ccccc2)oc2ccccc12 [1b] | > 10 | 
O=c1c(Cn2ccnc2)c(-c2ccc([N+](=O)[O-])cc2)oc2cc(O)ccc12 [2a, 3-((1H-imidazol-1-yl)methyl)-7-hydroxy-2-(4-nitrophenyl)-4H-chromen-4-one] | > 10 | 2.1
O=c1c(Cn2ccnc2)c(-c2ccccc2)oc2cc(O)ccc12 [2b, 3-((1H-imidazol-1-yl)methyl)-7-hydroxy-2-phenyl-4H-chromen-4-one] | > 10 | 4
CC/C(=C(\c1ccc(O)cc1)c1ccc(OCCNC)cc1)c1ccccc1 [Endoxifen] | 0.043 | > 10
N#Cc1ccc(C(c2ccc(C#N)cc2)n2cncn2)cc1 [Letrozole] | > 10 | 

Results, then the compound that gave them:

IC50 [1] [µM] | IC50 [2] [µM] | SMILES
> 10 |  | O=c1c(C(c2ccc([N+](=O)[O-])cc2)n2ccnc2)coc2ccccc12 (racemic) [3a]
0.31 | 0.5 | O=c1c(C(c2ccccc2)n2ccnc2)coc2ccccc12 (racemic) [3b, 3-((1H-imidazol-1-yl)(phenyl)methyl)-4H-chromen-4-one]
0.595 | 0.122 | O=c1c(C(c2ccc([N+](=O)[O-])cc2)n2ccnc2)coc2cc(O)ccc12 (racemic) [4a, 3-((1H-imidazol-1-yl)(4-nitrophenyl)methyl)-7-hydroxy-4H-chromen-4-one]
0.203 | 2.2 | O=c1c(C(c2ccccc2)n2ccnc2)coc2cc(O)ccc12 (racemic) [4b, 3-((1H-imidazol-1-yl)(phenyl)methyl)-7-hydroxy-4H-chromen-4-one]
